According to US20220378773A1, “METHODS FOR TREATING LEUKEMIA AND USE OF A LEUKEMIC STEM CELL SIGNATURE TO PREDICT CLINICAL SENSITIVITY TO THERAPIES” (CELGENE CORPORATION, priority 2019, published 2022):
Entries after “also recorded” stand apart in the source; their conditions may differ. Marks after values point to notes of the source that are not given here.

How the values were obtained:
[1] = tested on: leukemic stem cells (LSCs); assay: Secondary xenograft limiting dilution assay (LDA); type: in vivo, NOD/SCID mice; conditions: for Fold reduction of LSC frequency by Compound D: relative to vehicle; for No. mice engrafted/No. mice transplanted: from Compound D-treated primary mice
Protocol: Secondary xenograft limiting dilution assay: To determine whether Compound D targeted leukemia stem cells with self-renewal ability, which are considered to contribute to leukemia progression, therapy-resistance, and relapse, secondary transplantation was performed using LDA. Limiting dilution assays are designed to define an unknown frequency of LSCs in the total leukemia graft of primary mice. LDA analysis in secondary transplantation will allow quantitative determination whether Compound D targets LSCs with self-renewal ability in primary mice. For this, multiple cell doses were used for secondary transplant to achieve both a positive response (engrafted mice at high cell doses) and a negative response (non-engrafted mice at lowest cell dose). Four different AML cell doses for each treated group (1 million, 500,000, 50,000 and 2000 cells/mouse) with 5 mice per cell dose, totally 40 mice for each AML graft sample. For any sample that was considered aggressive, LDA was performed with lower cell doses. The frequency of LSCs was analyzed using the Walter and Eliza Hall Institute (WEHI) bioinformatics extreme limiting dilution analysis (ELDA) software (bioinf.wehi.edu.au).
For secondary transplant NOD/SCID mice were sublethally irradiated (275 cGy) and pretreated with anti-CD122 antibody (200 μg/mouse) to deplete residual host natural killer cells. On the day of transplantation, viably frozen cells harvested from the vehicle- or Compound D-treated primary mice were thawed, counted, mouse-cell depleted (Mouse Cell Depletion Kit, Miltenyi Biotec, USA), and transplanted intrafemorally into the pretreated secondary mice at limiting doses described above. For secondary transplant without LDA, thawed cells were not depleted of mouse cells before transplantation. At 12 weeks post secondary transplantation, mice were euthanized, and bone marrow was collected and analyzed.
Limiting dilution assay: Limiting dilution assays were used to define the frequency of leukemia stem cells in the total leukemia graft of the primary mice. Therefore, analysis of LDA in secondary transplantation will allow quantitative determination whether Compound D targets leukemia stem cells with self-renewal ability in primary mice. For this, multiple cell doses were used for secondary transplant to achieve both a positive response (engrafted mice at high cell doses) and a negative response (non-engrafted mice at lowest cell dose). Four different AML cell doses for each treated group were used (1 million, 500,000, 50,000 and 2000 cells/mouse) with 5 mice per cell dose, totally 40 mice for each leukemia graft sample. For any sample that was considered aggressive, LDA was performed with lower cell doses. The frequency of LSCs was analyzed using the Walter and Eliza Hall Institute (WEHI) bioinformatics extreme limiting dilution analysis (ELDA) software (bioinfwehi.edu.au).
Intrafemoral transplantation: One day prior to transplantation, NOD/SCID mice were sublethally irradiated (275 cGy) and pretreated with anti-CD122 antibody (200m/mouse) to deplete residual host natural killer cells. On the day of transplantation, viably frozen cells harvested from combined vehicle- or Compound D-treated (2.5 mg/kg intraperitoneally twice daily for 14 days, Section 6.1) primary mice were thawed, counted, mouse cell depleted, and transplanted intrafemorally into the pretreated secondary mice at limiting doses in a total volume of 30 μl. For the Compound D-treated samples with low human AML engraftment 25%), cells from both RF and BM were combined and 2 rounds of mouse depletion were performed to ensure a high human AML cell purity. […] Mouse cell depletion was performed following the instructions provided by Miltenyi Biotec (Mouse Cell Depletion Kit, catalogue number 130-104-694, Miltenyi Biotec, Germany). […]

GSPT1 = biological target: T1, GSPT1 (Homo sapiens, UniProt P15170+Q96SW2); assay: In vitro GSPT1 degradation in primary AML cells (flow cytometry, MFI); type: cell-based
T1 construct: endogenous in cells; host or cells: primary AML patient cells (peripheral blood mononuclear cells) in short-term suspension culture
Protocol: 6.2.3.1. In Vitro Degradation of G1 to S Phase Transition Protein 1 (GSPT1) by Compound D and Apoptosis Assay
Preparation of Test Article Stock Solutions and Dilutions: Compound D was prepared in anhydrous DMSO to make a 1 M stock solution then further diluted to final concentrations of 3, 30, and 100 nM.
Cell Culture: Materials used for in vitro assays of AML cells included X-VIVO 10 medium supplemented with 15% BIT, and growth factors including 100 ng/mL of stem cell factor, 20 ng/mL of IL-6, 20 ng/mL of G-CSF, 20 ng/mL of IL-3, 100 ng/mL of Flt 3 ligand (each provided by Amgen, USA), 20 ng/mL of GM-CSF (R&D Systems, USA), and 50 ng/mL of thrombopoietin (Kirin Brewery, Japan).
Assay Procedure: After 4 and 24 hours of in vitro culture with DMSO or Compound D, cells were harvested for GSPT1 expression and apoptosis. Levels of GSPT1 were analyzed by flow cytometry using median fluorescence intensity (MFI) and normalized against DMSO controls. Apoptosis was also analyzed by flow cytometry and measured as percentage of cells which were positive for cleaved caspase 3/7.
Viably frozen primary leukemia cells were thawed and plated in suspension culture in the Iscove's Modified Dulbecco's Medium plus 15% BIT Serum Substitute (Stem Cell Technology, Canada), supplemented with multiple human growth factors. Compound D was added to the culture at indicated concentrations.
For GSPT1 expression, intracellular flow cytometry (FACS) was performed at 24 hours in culture by staining cells with GSPT1 conjugated with Alexa Fluor 647. For apoptosis, cells were harvested at 24 hours in culture and stained with Annexin V-PE and 7-aminoactinomycin D (7AAD) (BD Biosciences, USA).

T1 sequence (P15170 whole entry): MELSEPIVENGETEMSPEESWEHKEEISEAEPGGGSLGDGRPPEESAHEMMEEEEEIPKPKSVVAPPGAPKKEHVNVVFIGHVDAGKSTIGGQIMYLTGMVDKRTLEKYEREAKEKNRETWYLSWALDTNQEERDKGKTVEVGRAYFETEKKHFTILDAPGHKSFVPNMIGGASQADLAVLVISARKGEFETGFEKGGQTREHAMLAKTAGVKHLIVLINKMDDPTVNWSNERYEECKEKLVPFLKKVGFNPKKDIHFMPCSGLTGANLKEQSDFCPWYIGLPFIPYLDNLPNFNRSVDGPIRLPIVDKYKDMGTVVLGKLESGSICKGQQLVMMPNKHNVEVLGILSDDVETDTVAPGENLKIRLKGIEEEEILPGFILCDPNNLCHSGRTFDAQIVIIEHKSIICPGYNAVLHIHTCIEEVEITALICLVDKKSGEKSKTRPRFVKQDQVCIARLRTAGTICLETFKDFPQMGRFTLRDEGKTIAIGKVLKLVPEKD
T1 sequence (Q96SW2 whole entry): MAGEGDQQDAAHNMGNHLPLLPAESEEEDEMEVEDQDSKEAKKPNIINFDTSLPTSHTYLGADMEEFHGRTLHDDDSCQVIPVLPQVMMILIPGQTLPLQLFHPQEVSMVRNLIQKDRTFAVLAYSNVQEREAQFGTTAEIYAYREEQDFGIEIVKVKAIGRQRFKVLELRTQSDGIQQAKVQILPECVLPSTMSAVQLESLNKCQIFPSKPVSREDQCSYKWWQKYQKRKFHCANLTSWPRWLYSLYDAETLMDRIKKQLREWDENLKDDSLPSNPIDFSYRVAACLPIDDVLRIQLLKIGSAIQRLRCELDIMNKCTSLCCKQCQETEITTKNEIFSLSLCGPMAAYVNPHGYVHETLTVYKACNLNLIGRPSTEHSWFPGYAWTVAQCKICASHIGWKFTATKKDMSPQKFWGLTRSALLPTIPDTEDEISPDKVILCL
T1 sequence (Q16531 whole entry partner): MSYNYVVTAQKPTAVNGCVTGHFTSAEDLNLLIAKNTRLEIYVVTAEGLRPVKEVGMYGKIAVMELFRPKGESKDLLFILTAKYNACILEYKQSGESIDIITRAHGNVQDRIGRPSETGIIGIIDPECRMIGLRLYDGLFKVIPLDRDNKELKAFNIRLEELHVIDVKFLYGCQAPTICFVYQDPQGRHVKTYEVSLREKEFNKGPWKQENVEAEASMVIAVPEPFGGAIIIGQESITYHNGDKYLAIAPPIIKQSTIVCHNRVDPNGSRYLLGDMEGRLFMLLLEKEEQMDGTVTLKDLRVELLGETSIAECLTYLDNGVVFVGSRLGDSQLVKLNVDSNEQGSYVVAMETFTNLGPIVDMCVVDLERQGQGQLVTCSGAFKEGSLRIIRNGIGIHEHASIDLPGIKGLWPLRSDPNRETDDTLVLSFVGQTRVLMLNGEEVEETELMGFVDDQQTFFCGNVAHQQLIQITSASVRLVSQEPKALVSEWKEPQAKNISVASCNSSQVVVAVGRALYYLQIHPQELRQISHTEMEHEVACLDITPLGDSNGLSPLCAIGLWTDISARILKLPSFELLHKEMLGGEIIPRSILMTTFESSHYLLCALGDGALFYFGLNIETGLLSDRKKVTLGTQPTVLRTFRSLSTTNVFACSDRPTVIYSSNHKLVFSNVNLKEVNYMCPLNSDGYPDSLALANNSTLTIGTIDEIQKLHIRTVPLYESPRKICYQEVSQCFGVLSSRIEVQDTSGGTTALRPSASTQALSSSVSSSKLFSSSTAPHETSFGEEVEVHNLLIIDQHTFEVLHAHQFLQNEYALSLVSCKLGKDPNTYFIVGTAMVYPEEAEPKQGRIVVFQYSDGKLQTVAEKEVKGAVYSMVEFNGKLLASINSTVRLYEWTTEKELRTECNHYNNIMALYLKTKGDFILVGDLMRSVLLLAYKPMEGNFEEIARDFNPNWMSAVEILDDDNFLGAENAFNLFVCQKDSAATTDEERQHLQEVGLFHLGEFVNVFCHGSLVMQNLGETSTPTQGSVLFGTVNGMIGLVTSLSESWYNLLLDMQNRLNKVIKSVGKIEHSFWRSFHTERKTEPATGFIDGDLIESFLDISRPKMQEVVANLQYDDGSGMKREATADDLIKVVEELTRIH

## O=C1CCC(N2Cc3cc(CNC(=O)C(F)(F)c4ccc(Cl)cc4)ccc3C2=O)C(=O)N1 (stereo not drawn) [Compound D, 2-(4-chlorophenyl)-N-((2-(2,6-dioxopiperidin-3-yl)-1-oxoisoindolin-5-yl)methyl)-2,2-difluoroacetamide]
[1]; AML 90191, cells from Compound D primary-treated mice, about 12 weeks
  AML engraftment in secondary mice: no AML engraftment
[1]; AML 110500
  leukemia graft in secondary mice vs vehicle-treated cells: much lower leukemia graft
[1]; AML 120860, non-injected BM data
  LSC frequency, vehicle- vs Compound D-treated primary mice: no difference in LSC frequency; also recorded: no difference for LSC frequency
[1]; AML Patient 110484
  LSC frequency increase following treatment: 1.6 fold
[1]; AML Patient 120846
  LSC frequency increase following treatment: 1.8 fold
[1]; AML Patient 120860
  LSC frequency increase following treatment: 1.3 fold
[1]; AML Patient 130695
  LSC frequency increase following treatment: 12.6 fold
[1]; AML Patient 130926 (responder)
  LSC frequency: did not reduce LSC frequency
[1]; Patient 598, cells from RF of treated primary mice
  LSC frequency (1/total number), Compound D: 675569 1/total number
[1]; Patient 598
  Fold reduction of LSC frequency by Compound D: 2.1 fold
[1]; Patient 90191, cells from RF + BM of treated primary mice
  LSC frequency (1/total number), Compound D: Not engrafted
[1]; Patient 100348, cells from RF + BM of treated primary mice
  LSC frequency (1/total number), Compound D: 923814 1/total number
[1]; Patient 100348
  Fold reduction of LSC frequency by Compound D: 4.0 fold
[1]; Patient 110484, cells from RF of treated primary mice
  LSC frequency (1/total number), Compound D: 1153831 1/total number
[1]; Patient 110484, negative sign = increase
  Fold reduction of LSC frequency by Compound D: −1.6 ^a fold
[1]; Patient 110500, cells from RF of treated primary mice
  LSC frequency (1/total number), Compound D: 356239 1/total number
[1]; Patient 120791, cells from RF + BM of treated primary mice
  LSC frequency (1/total number), Compound D: Not engrafted
[1]; Patient 120846, cells from RF of treated primary mice
  LSC frequency (1/total number), Compound D: 14523 1/total number
[1]; Patient 120846, negative sign = increase
  Fold reduction of LSC frequency by Compound D: −1.8 ^a fold
[1]; Patient 120860, cells from BM of treated primary mice
  LSC frequency (1/total number), Compound D: 65626 1/total number
[1]; Patient 120860, negative sign = increase
  Fold reduction of LSC frequency by Compound D: −1.3 ^a fold
[1]; Patient 120899, cells from BM of treated primary mice
  LSC frequency (1/total number), Compound D: 27120 1/total number
[1]; Patient 120899
  Fold reduction of LSC frequency by Compound D: 4.0 fold
[1]; Patient 121020, cells from RF+BM of treated primary mice
  LSC frequency (1/total number), Compound D: 7562084 1/total number
[1]; Patient 121020
  Fold reduction of LSC frequency by Compound D: 1.5 fold
[1]; Patient 130578, 5000 cells transplanted/mouse
  No. mice engrafted/No. mice transplanted: 0/5
[1]; Patient 130578, 20000 cells transplanted/mouse
  No. mice engrafted/No. mice transplanted: 0/5
[1]; Patient 130578, 50000 cells transplanted/mouse
  No. mice engrafted/No. mice transplanted: 2/5
[1]; Patient 130578, 120000 cells transplanted/mouse
  No. mice engrafted/No. mice transplanted: 2/3
[1]; Patient 130578
  Fold reduction of LSC frequency by Compound D: 9.4 fold
[1]; Patient 130695, cells from RF of treated primary mice
  LSC frequency (1/total number), Compound D: 36696 1/total number
[1]; Patient 130695, negative sign = increase
  Fold reduction of LSC frequency by Compound D: −12.6*** ^a fold
[1]; Patient 130712, cells from BM of treated primary mice
  LSC frequency (1/total number), Compound D: 758064 1/total number
[1]; Patient 130712
  Fold reduction of LSC frequency by Compound D: 2.7 fold
[1]; Patient 130926, cells from RF + BM of treated primary mice
  LSC frequency (1/total number), Compound D: 1207241 1/total number
[1]; Patient 130926
  Fold reduction of LSC frequency by Compound D: 1.0 fold
[1]; Patient 140171, cells from RF + BM of treated primary mice
  LSC frequency (1/total number), Compound D: Not engrafted
[1]; mouse, in vivo
  responsive leukemia samples with LSCs targeted: 6 out of 10 samples
GSPT1; 100 nM, 24 hours
  GSPT1 degradation, high vs low LSC17 score samples: samples with high LSC17 scores had significantly higher GSPT1 degradation
GSPT1; 3, 30, 100 nM
  effect on reduction of GSPT1 levels, concentration dependence: concentration dependent
GSPT1; Section 6.3 samples, 24 hours exposure
  GSPT1 expression in AML cells: decreased GSPT1 expression
GSPT1; ten primary AML patient samples, 4 and 24 hours, vs control
  GSPT1 levels in AML cells: reduced GSPT1 levels as early as 4 hours post treatment
